In experiment [1] the test system is acute promyelocytic leukemia. To be noted: patients with acute promyelocytic leukemia; cited from earlier work.
In experiment [2] the test system is ABCA1, ABCG1, SREBP-1c, apoE, LXRα, Cyp26 mRNA. As to the kind of experiment: Quantitative real-time PCR of LXR target genes and Cyp26 in human monocyte-derived macrophages. In kind it is cell-based. As for the experimental part: (§1) For quantification of mouse Cyp26 mRNA levels, each amplification mixture (25 μ) contained 62.5 ng of cDNA, 100 nM concentrations of reverse and forward primers, and 2.5 μl of 10× SYBR Green PCR master mix (Perkin-Elmer Life Sciences, Boston, Mass.). Quantitative expression values were extrapolated from standard curves for Cyp26 expression with 10-fold dilutions of cDNA (in triplicate). Each sample was normalized to β-actin that was deduced from TaqMan assays, triplicate results were averaged, and relative Cyp26 mRNA levels were determined. The primers mCyp26 F (5′-[…]-3′) and mCyp26 R (5′-[…]-3′) were used. RNA measurements from human monocyte-derived macrophages were performed as described previously (10, 44).

For experiment [3] the test system is unchanged. The experiment in a line: Quantitative real-time PCR of LXR target genes and Cyp26 in mouse peritoneal macrophages. In kind it is cell-based. The note with it: 24 h. The protocol: Total RNA was isolated from mouse peritoneal macrophages or ˜50 mg of mouse liver tissue by using the RNeasy Mini kit (Qiagen, Valencia, Calif.) or RNA-Bee reagent (Tel-Test, Inc., Friendswood, Tex.), respectively, according to the manufacturer's protocol. Real-time quantitative PCR assays were performed by using the Mx4000 Quantitative PCR System (Stratagene, La Jolla, Calif.). Briefly, 5 μg of total RNA was treated with RNase-free DNase I (Ambion, Austin, Tex.), and first-strand cDNA was synthesized with oligo(dT)12-18 by using a Superscript II RNase H^− reverse transcriptase reagent kit (Invitrogen) according to the manufacturer's protocol. For quantification of mouse ABCA1, ABCG1, SREBP-1c, LXRα, ApoE, and fatty acid synthase (FAS) mRNA levels, each amplification mixture contained 62.5 ng of cDNA, appropriate concentrations of forward and reverse primers and of dual-labeled fluorogenic probe (Biosearch Technologies, Novato, Calif.), and 12.5 μl of TaqMan Universal PCR master mix (Applied Biosystems, Foster City, Calif.). PCR thermocycling parameters were 50° C. for 2 min, 95° C. for 10 min, and 45 cycles of 95° C. for 15 s and 60° C. for 1 min. All samples were analyzed for β-actin expression in the same run. Quantitative expression values were extrapolated from standard curves for the gene of interest with 10-fold dilutions of cDNA (in triplicate). Each sample was normalized to β-actin, triplicates were averaged, and relative mRNA levels were determined. The following mouse primers and probes were used: mouse ABCA1 (mABCA1) forward (F) (5′-[…]-3′), mABCA1 reverse (R) (5′-[…]-3′), and mABCA1 TaqMan probe (5′-FAM-[…]-BHQ-3′); mABCG1 F (5′-[…]-3′), mABCG1 R (5′-[…]-3′), and mABCG1 TaqMan probe (5′-FAM-[…]-BHQ-3′); mSREBP-1c F (5′-[…]-3′), mSREBP-1c R (5′-[…]-3′), and mSREBP-1c TaqMan probe (5′-FAM-[…]-BHQ-3′); mApoE F (5′-[…]-3′), mApoE R (5′-[…]-3′), and mApoE TaqMan probe (5′-FAM-[…]-BHQ-3′); mLXRα F (5′-[…]-3′), mLXRα R (5′-[…]-3′), and mLXRα TaqMan probe (5′-FAM-[…]-BHQ-3′); mFAS F (5′-[…]-3′), mFAS R (5′-[…]-3′), and mFAS TaqMan probe (5′-FAM-[…]-BHQ-3′); and mβ-actin F (5′-[…]-3′), mβ-actin R (5′-[…]-3′), and mβ-actin TaqMan probe (5′-JOE-[…]-BHQ-3′).
as §1

Experiment [4] relates to ABCA1 protein. The experiment in a line: Western blot of ABCA1 protein in mouse peritoneal macrophages. In kind it is cell-based. To be noted: 24 h. As for the experimental part: (§2) Protein extracts from macrophages were prepared by lysing the cells in modified radioimmunoprecipitation assay buffer (50 mM Tris, 150 mM NaCl, 1 mM EDTA. 1% Triton X-100) containing a protease inhibitor cocktail (Complete EDTA Free; Roche). Protein content in the extracts was determined by using the DC protein assay (Bio-Rad, Hercules, Calif.). Equal amounts of protein (40 to 50 μg) were separated by electrophoresis with 4 to 15% acrylamide gradient gels (Bio-Rad) and then transferred to nitrocellulose membrane (Trans-Blot Transfer Medium; Bio-Rad). Membranes were probed with anti-ABCA1 antibody (Novus Biologicals, Littleton, Colo.) and anti-β-actin antibody (Sigma) according to the manufacturer's recommendations. Immunoblots were developed by using a chemiluminescent detection system (Super Signal West Pico chemiluminescent substrate; Pierce, Rockford, Ill.).
Background: A western blot detects proteins with antibodies after separation by electrophoresis.

Experiment [5] relates to ABCA1-mediated cholesterol efflux from mouse peritoneal macrophages. As to the kind of experiment: Cholesterol efflux to apoA-I from cholesterol-loaded macrophages.
Experiment [6] concerns ABCA1 protein. As to the kind of experiment: Western blot of ABCA1 protein in human monocyte-derived macrophages. In kind it is cell-based. The note with it: human primary monocytes/macrophages, 10 μM, 24 h. The protocol:
as §2

The next experiment deals with RARγ protein. The experiment in a line: Western blot of RARγ protein in macrophages. In kind it is cell-based. The note with it: macrophages incubated with ATRA.
The mark [7] stands for this setting: human primary monocytes/macrophages, ATRA 0.5 to 5 μM, 24 h.
Setting [8] is: mouse primary macrophages, ATRA 0.1 to 5 μM.

Experimental for RARγ protein: Nuclear protein extracts from tissues and macrophages were isolated according to the following method. Tissue samples and cells were first homogenized on ice and then lysed in lysis buffer (10 mM Tris [pH 7.5], 3 mM MgCl2, 10 mM NaCl, 0.5% NP-40) containing protease inhibitor cocktail. The nucleus was then pelleted by centrifugation for 10 min at 6,000× g, immediately resuspended in a nucleus suspension buffer (250 mM Tris [pH 8.0], 60 mM KCl, I mM dithiothrietol), and then rotated for 1 h. […] The intensities of the bands were quantified by using ImageQuant and normalized to (β-actin.

On to `CC1=C(/C=C/C(C)=C/C=C/C(C)=C/C(=O)O)C(C)(C)CCC1` [ATRA, all-trans-retinoic acid], for which the “patients in whom remission is induced” value in experiment [1] was “ca. 80%”. Moreover, the “apoE mRNA induction” value in experiment [2] (human primary macrophages, even at the higher dose) was “not induced”. Also, in experiment [2] (setting [7]), the “ABCA1 mRNA induction” value is “strong induction”, the “ABCG1 mRNA induction” value is “strong induction”, the “LXRα mRNA induction” value is “weaker but significant increases” and the “SREBP-1c mRNA induction” value was “weaker but significant increases”. The “ABCA1 mRNA” value in experiment [3] (mouse peritoneal macrophages, ATRA 0.1 to 5 μM) is “increase in the mRNA that was parallel to the dose response of protein and cholesterol efflux”. Moreover, the “lowest dose giving ABCA1 mRNA response” value in experiment [3] (mouse primary macrophages) is 0.25 µM. For the same molecule, in experiment [3] (setting [8]), the “ABCG1 mRNA induction” value was “weaker and somewhat inconsistent induction”; the “LXRα mRNA induction” value is “no significant induction”; the “SREBP-1c mRNA induction” value was “weaker and somewhat inconsistent induction”; the “apoE mRNA induction” value is “no significant induction”. For the same molecule, in the experiment on ABCA1 protein [4], the ABCA1 protein levels result is on record as “dose dependently increased”. Moreover, the “ABCA1-dependent cholesterol efflux to apoA-1, dose response” value in experiment [5] is on record as “increased ABCA1-dependent cholesterol efflux to apoA-1 in a dose-dependent fashion”. The “increase in cholesterol efflux to apoA-I, ATRA compared with TO-901317” value in experiment [5] (1 and 5 μM ATRA) was “comparable to that occurring in macrophages treated with the LXR activator TO-901317”. In addition, in experiment [5] (maximum dose of 10 μM), the “increase of cholesterol efflux to apoA-1” value is recorded as roughly 2 fold. Moreover, the ABCA1 protein entry in the experiment on ABCA1 protein [6] was “increased”. For the same molecule, in the experiment with RARγ protein, the “induction of RARγ protein” value was less than 2 fold.

Source of the values: patent publication US20060009520A1, “Retinoid-based methods for altering macrophage cholesterol” (priority 2004, published 2006).
